Where a name gives a salt, the structure may show the parent alone. Read-outs that look alike come from different tables or passages of the source.
Target: T1, HSF1 (Homo sapiens, UniProt Q00613)
T1 construct: functionally linked to an hsp70b promoter and therefore controlled by endogenous HSF1; endogenous in cells; host or cells: HeLa cells / HeLa-derived cell line Z74
T1 sequence (Q00613 1-529): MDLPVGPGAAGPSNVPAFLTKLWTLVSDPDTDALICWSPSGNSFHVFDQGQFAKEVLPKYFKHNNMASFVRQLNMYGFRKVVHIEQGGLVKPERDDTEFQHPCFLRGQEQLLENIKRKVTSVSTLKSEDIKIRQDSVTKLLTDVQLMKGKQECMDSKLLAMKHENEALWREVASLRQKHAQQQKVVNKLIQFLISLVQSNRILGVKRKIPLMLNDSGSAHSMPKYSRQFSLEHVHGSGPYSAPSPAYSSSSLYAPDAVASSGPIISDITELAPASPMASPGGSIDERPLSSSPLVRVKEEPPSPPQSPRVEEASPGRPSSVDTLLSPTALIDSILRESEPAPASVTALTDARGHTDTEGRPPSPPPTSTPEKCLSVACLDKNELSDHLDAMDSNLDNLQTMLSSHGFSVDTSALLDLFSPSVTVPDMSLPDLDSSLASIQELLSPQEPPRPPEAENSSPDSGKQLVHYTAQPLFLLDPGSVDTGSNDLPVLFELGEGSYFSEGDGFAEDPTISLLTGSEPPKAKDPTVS
Test: Z74 cell-based reporter assay: heat-induced RLuc expression controlled by endogenous HSF1
Details: for inhibition at 12.5 µM: read-out: Inhibition of HSF1 activity at 12.5 μM IHSF [RLuc] (%); for inhibition at 25 µM: read-out: Inhibition of HSF1 activity at 25 μM IHSF [RLuc] (%); for IC50: inhibition of HSF1 activity [RLuc]
Description: For screening this sublibrary, a cell-based assay was developed. We opted for a cell-based assay, because a cell-free assay would have had to be a DNA-binding assay. Such an assay would have limited discovery to molecules capable of interfering with the DNA-binding function of HSF1. This was thought to be too narrow a focus, considering that three of the four cavities identified in the HSF1 DNA-binding domain are not near the DNA interaction region. A straightforward cell-based assay, in which a HSF1-responsive gene would be assayed, was considered likely to be over-inclusive. Compounds would be scored as hits that inhibit any factor that is involved in HSF1 activation or prevents HSF1 deactivation. These factors include protein kinases, activators of protein phosphatases, factors affecting HSF1 mRNA stability, HSP90, HDAC6, etc. For developing a more discriminating cell-based assay, advantage was taken of the modular nature of HSF1. […] The cell-based assay developed (see below for the particular format employed) compared transactivation by wild type HSF1 and chimeric HSF1 in cells exposed to an HSF1-activating heat treatment in the presence of a sublibrary compound. A compound was scored as a hit, if it inhibited the activity of wild type HSF1 but not of chimeric HSF1.
The cell-based assay made use of HeLa-derived cell line Z74 that stably contains a gene for chimeric transcription factor LexA-(human) HSF1 under the control of a CMV early promoter, a firefly luciferase (flue) gene driven by a promoter responsive to the latter chimeric transcription factor and a Renilla luciferase (rluc) gene functionally linked to an hsp70b promoter and therefore controlled by endogenous HSF1 (FIG. 1A). As is shown in FIGS. 1B & C, the reporter genes responded similarly to heat dose, i.e., their activation depended on both duration of heat exposure and temperature of the exposure. […] Depletion of HSF1 (and LexA-HSF1) by siRNA supported the notion that this stress regulation is mediated by HSF1 (and LexA-HSF1). Therefore, the Z74 line was well suited for use in a screening assay aimed at discovering molecules that inhibit heat-induced HSF1 activity through interaction with the transcription factor's DNA-binding domain.
The compounds of the afore-mentioned biased sublibrary were screened in cell line Z74 at 12.5 and 25 μM concentrations. Typically, Z74 cultures in 96-well plates were exposed to compound or vehicle for 2 h, heat-treated at 43.0° C. for 30 min, and incubated further for 6 h at 37° C. to allow for accumulation of the luciferases. RLuc and FLuc activities were determined, typically using the Dual-Glo® Luciferase Assay System (Promega Corp., Madison, Wis.), and reading luciferase light counts in a Wallac Microbeta Trilux-1450 Luminometer (PerkinElmer, Waltham, Mass.). IHSF 001 was one of two library compounds that inhibited RLuc expression but not FLuc expression in heat-treated Z74 cells (Table 1; FIG. 2A). Therefore, IHSF 001 is an inhibitor of HSF1 function that specifically acts through the HSF1 DNA-binding domain. […] A corroborating experiment utilized a cell line containing an hsp70b promoter-driven fluc gene. […] IHSF 001 is (E)-ethyl 4-oxo-4-(thiazol-2-ylamino)but-2-enoate. The compound can be obtained from commercial sources (e.g., AKE-PB-90340538, Akos).

[1] = Z74 cells, 12.5 μM IHSF, negative values marked *: compound enhanced rLuc activity
[2] = Z74 cells, 25 μM IHSF, 2 h exposure, 43° C. 30 min, 6 h at 37° C.

`CCOC(=O)/C=C/C(=O)Nc1nc2ccccc2s1` [IHSF 010, (E)-3-(Benzothiazol-2-ylcarbamoyl)-acrylic acid ethyl ester] gave an inhibition at 12.5 µM [1] of 56% and an inhibition at 25 µM [2] of 56%.

With `CCOC(=O)/C=C/C(=O)Nc1nc(-c2ccccc2)cs1` [IHSF 012, (E)-3-(4-Phenyl-thiazol-2-ylcarbamoyl)-acrylic acid ethyl ester] the IC50 (Z74 cells) was 11.3 µM, the inhibition at 12.5 µM [1] was 68% and the inhibition at 25 µM [2] was 86%.

`CCOC(=O)/C=C/C(=O)Nc1ncc(C)s1` [IHSF 013, (E)-3-(5-Methyl-thiazol-2-ylcarbamoyl)-acrylic acid ethyl ester] was tested, and the inhibition at 12.5 µM [1] was 34% and the inhibition at 25 µM [2] was 50%.

Molecule `CCOC(=O)/C=C/C(=O)Nc1ncc(-c2ccccc2)s1` [IHSF 014, (E)-3-(5-Phenyl-thiazol-2-ylcarbamoyl)-acrylic acid ethyl ester] has an IC50 (Z74 cells) of 7.1 µM, an inhibition at 12.5 µM [1] of 60% and an inhibition at 25 µM [2] of 89%.

With `CCOC(=O)/C=C/C(=O)Nc1ncco1` [IHSF 015, (E)-3-(Oxazol-2-ylcarbamoyl)-acrylic acid ethyl ester] the inhibition at 12.5 µM [1] was 0% and the inhibition at 25 µM [2] was 20%.

`CCOC(=O)/C=C/C(=O)Nc1ccn(C)n1` [IHSF 016, (E)-3-(1-Methyl-1H-pyrazol-3-ylcarbamoyl)-acrylic acid ethyl ester] gave an inhibition at 12.5 µM [1] of 0% and an inhibition at 25 µM [2] of 25%.

`CCOC(=O)/C=C/C(=O)Nc1ccon1` [IHSF 017, (E)-3-(Isoxazol-3-ylcarbamoyl)-acrylic acid ethyl ester] gave an inhibition at 12.5 µM [1] of 32% and an inhibition at 25 µM [2] of 37%.

In the case of `CCOC(=O)/C=C/C(=O)Nc1nncs1` [IHSF 018, (E)-3-([1,3,4]Thiadiazol-2-ylcarbamoyl)-acrylic acid ethyl ester], the IC50 (Z74 cells) is reported as 23.6 µM, the inhibition at 12.5 µM [1] is reported as 20% and the inhibition at 25 µM [2] is reported as 53%.

Work on `CCOC(=O)/C=C/C(=O)Nc1ccncc1` [IHSF 020, (E)-3-(Pyridin-4-ylcarbamoyl)-acrylic acid ethyl ester] yielded an IC50 (Z74 cells) of 23.5 µM, an inhibition at 12.5 µM [1] of 30% and an inhibition at 25 µM [2] of 53%.

For `COC(=O)/C=C/C(=O)Nc1nccs1` [IHSF 027, (E)-3-(Thiazol-2-ylcarbamoyl)-acrylic acid methyl ester], the inhibition at 12.5 µM [1] was 18% and the inhibition at 25 µM [2] was 42%.

Work on `CC(C)OC(=O)/C=C/C(=O)Nc1nccs1` [IHSF 028, (E)-3-(Thiazol-2-ylcarbamoyl)-acrylic acid isopropyl ester] yielded an inhibition at 12.5 µM [1] of 13% and an inhibition at 25 µM [2] of 41%.

`CCNC(=O)/C=C/C(=O)Nc1nccs1` [IHSF 030, (E)-But-2-enedioic acid ethylamide thiazol-2-ylamide] showed an inhibition at 12.5 µM [1] of 5% and an inhibition at 25 µM [2] of 18%.

`CC(C)NC(=O)/C=C/C(=O)Nc1nccs1` [IHSF 031, (E)-But-2-enedioic acid isopropylamide thiazol-2-ylamide] gave an inhibition at 12.5 µM [1] of 15% and an inhibition at 25 µM [2] of 24%.

`CCCCOC(=O)/C=C/C(=O)Nc1nccs1` [IHSF 042, (E)-3-(Thiazol-2-ylcarbamoyl)-acrylic acid butyl ester] was tested, and the inhibition at 12.5 µM [1] was 1% and the inhibition at 25 µM [2] was 52%.

Molecule `CCOC(=O)/C=C/C(=O)Nc1cc(-c2ccccc2)cs1` [IHSF 043, (E)-3-(4-Phenyl-thiophen-2-ylcarbamoyl)-acrylic acid ethyl ester] has an inhibition at 12.5 µM [1] of 32% and an inhibition at 25 µM [2] of 5%.

With `CCOC(=O)/C=C/C(=O)Nc1cnc(-c2ccccc2)s1` [IHSF 045, (E)-3-(2-Phenyl-thiazol-5-ylcarbamoyl)-acrylic acid ethyl ester] the inhibition at 12.5 µM [1] was 34% and the inhibition at 25 µM [2] was 53%.

Work on `CCOC(=O)/C=C/C(=O)Nc1cc(C)no1` [IHSF 046, (E)-3-(3-Methyl-isoxazol-5-ylcarbamoyl)-acrylic acid ethyl ester] yielded an inhibition at 12.5 µM [1] of 33% and an inhibition at 25 µM [2] of 70%.

Molecule `CCOC(=O)/C=C/C(=O)Nc1ccnc(C)c1` [IHSF 048, (E)-3-(2-Methyl-pyridin-4-ylcarbamoyl)-acrylic acid ethyl ester] has an inhibition at 12.5 µM [1] of 37% and an inhibition at 25 µM [2] of 67%.

In the case of `CCOC(=O)/C=C/C(=O)Nc1nc(C2CC2)cs1` [IHSF 053, (E)-3-(4-Cyclopropyl-thiazol-2-ylcarbamoyl)-acrylic acid ethyl ester], the inhibition at 12.5 µM [1] is reported as 15% and the inhibition at 25 µM [2] is reported as 29%.

`CCOC(=O)/C=C/C(=O)Nc1nc(-c2ccccn2)cs1` [IHSF 054, (E)-3-(4-Pyridin-2-yl-thiazol-2-ylcarbamoyl)-acrylic acid ethyl ester] was tested, and the IC50 (Z74 cells) was 20.2 µM, the inhibition at 12.5 µM [1] was 22% and the inhibition at 25 µM [2] was 69%.

`CCOC(=O)/C=C/C(=O)Nc1nc(-c2cccnc2)cs1` [IHSF 055, (E)-3-(4-Pyridin-3-yl-thiazol-2-ylcarbamoyl)-acrylic acid ethyl ester] was tested, and the IC50 (Z74 cells) was 18.7 µM, the inhibition at 12.5 µM [1] was 27% and the inhibition at 25 µM [2] was 74%.

Work on `CCOC(=O)/C=C/C(=O)Nc1nc(-c2ccncc2)cs1` [IHSF 056, (E)-3-(4-Pyridin-4-yl-thiazol-2-lcarbamoyl)-acrylic acid ethyl ester] yielded an IC50 (Z74 cells) of 19.8 µM, an inhibition at 12.5 µM [1] of 35% and an inhibition at 25 µM [2] of 61%.

For `CCN(CC)C(=O)/C=C/C(=O)Nc1nc(C)cs1` [IHSF 060, (E)-But-2-enedioic acid diethyl-amide (4-methyl-thiazol-2-yl)-amide], the inhibition at 12.5 µM [1] was 16% and the inhibition at 25 µM [2] was 19%.

`Cc1csc(NC(=O)/C=C/C(=O)N(C)C)n1` [IHSF 061, (E)-But-2-enedioic acid dimethyl-amide (4-methyl-thiazol-2-yl)-amide] gave an inhibition at 12.5 µM [1] of 12% and an inhibition at 25 µM [2] of 18%.

`CCOC(=O)/C=C/C(=O)N(C)c1nccs1` [IHSF 070, (E)-3-(Methyl-thiazol-2-yl-carbamoyl)-acrylic acid ethyl ester] showed an IC50 (Z74 cells) of 5.7 µM, an inhibition at 12.5 µM [1] of 72% and an inhibition at 25 µM [2] of 90%.

For `CCOC(=O)/C=C/C(=O)Nc1ccnc(-c2ccncc2)c1` [IHSF 076, (E)-3-([2,4′]Bipyridinyl-4-ylcarbamoyl)-acrylic acid ethyl ester], the inhibition at 12.5 µM [1] was 56% and the inhibition at 25 µM [2] was 66%.

Work on `CCOC(=O)/C=C/C(=O)Nc1ccnc(N2CCOCC2)c1` [IHSF 077, (E)-3-(2-Morpholin-4-yl-pyridin-4-ylcarbamoyl)-acrylic acid ethyl ester formic acid salt] yielded an inhibition at 12.5 µM of 42% and an inhibition at 25 µM of 67%.

In the case of `CCOC(=O)/C=C/C(=O)Nc1ccnc(N2CCN(C)CC2)c1` [IHSF 078, (E)-3-[2-(4-Methyl-piperazin-1-yl)-pyridin-4-ylcarbamoyl]-acrylic acid ethyl ester formic acid salt], the inhibition at 12.5 µM is reported as 32% and the inhibition at 25 µM is reported as 54%.

`CCOC(=O)/C=C/C(=O)Nc1ccnc(-c2ccccc2C)c1` [IHSF 079, (E)-3-(2-o-Tolyl-pyridin-4-ylcarbamoyl)-acrylic acid ethyl ester] was tested, and the inhibition at 12.5 µM [1] was 42% and the inhibition at 25 µM [2] was 79%.
